Assays:
Canis familiaris [1] = assay: Total electrolytic excretion of potassium in urine of dogs after intravenous administration of 30.3 uM/Kg of drug; assay type: ADME, organism-based, Canis lupus familiaris; details: dog, in vivo
Canis familiaris [2] = assay: Total electrolytic excretion of potassium in urine of dogs after intravenous administration of 9.09 uM/Kg of drug; assay type: ADME, organism-based, Canis lupus familiaris; details: dog, in vivo
Canis familiaris [3] = assay: Total electrolytic excretion of sodium in urine of dogs after intravenous administration of 9.09 uM/Kg of drug; assay type: ADME, organism-based, Canis lupus familiaris; details: dog, in vivo
Canis familiaris [4] = assay: Total electrolytic excretion of sodium in urine of dogs after peroral administration of 68.1 uM/Kg of drug; assay type: ADME, organism-based, Canis lupus familiaris; details: dog, in vivo, po
Rattus norvegicus [5] = assay: Total electrolytic excretion of sodium in urine of rats after peroral administration of 102 uM/Kg of drug; assay type: ADME, organism-based; details: in vivo, po
Rattus norvegicus [6] = assay: Total electrolytic excretion of potassium in urine of rats after peroral administration of 68.1 uM/Kg of drug; assay type: ADME, organism-based; details: in vivo, po
Canis familiaris [7] = assay: Total electrolytic excretion of sodium in urine of dogs after intravenous administration of 34.1 uM/Kg of drug; assay type: ADME, organism-based, Canis lupus familiaris; details: dog, in vivo
Canis familiaris [8] = assay: Tested for the diuretic activity by measuring the urinary volume after peroral administering 34.1 uM/Kg of drug in dogs; assay type: ADME, organism-based, Canis lupus familiaris, Urine; details: dog, in vivo, po
Canis familiaris [9] = assay: Tested for the diuretic activity by measuring the urinary volume after intravenous administering 9.09 uM/Kg of drug in dogs; assay type: ADME, organism-based, Canis lupus familiaris, Urine; details: dog, in vivo
Canis familiaris [10] = species: Canis familiaris; assay: Systemic cardio vascular Hemodynamics of heart rate was measured in Beagle dogs after giving the dose of MNX; assay type: functional, Canis lupus familiaris
Canis familiaris [11] = species: Canis familiaris; assay: Systemic cardio vascular Hemodynamics of stroke index was measured in Beagle dogs after giving the dose of MNX; assay type: functional, Canis lupus familiaris, Heart
Canis familiaris [12] = species: Canis familiaris; assay: Systemic cardio vascular Hemodynamics of stroke index was measured in Beagle dogs after giving the dose of MNX plus the drug; assay type: functional, Canis lupus familiaris, Heart
Canis familiaris [13] = species: Canis familiaris; assay: Systemic cardio vascular Hemodynamics of stroke index was measured in Beagle dogs in pretreatment control group; assay type: functional, Canis lupus familiaris, Heart
Canis familiaris [14] = species: Canis familiaris; assay: Systemic cardio vascular Hemodynamics of total peripheral resistance was measured in Beagle dogs after giving the dose of MNX plus the drug; assay type: functional, Canis lupus familiaris, Heart
Canis familiaris [15] = species: Canis familiaris; assay: Tissue vascular resistance of left ventricle was measured in Beagle dogs after giving the dose of MNX; assay type: functional, Canis lupus familiaris, Heart left ventricle
Canis familiaris [16] = species: Canis familiaris; assay: Tissue vascular resistance of left ventricle was measured in Beagle dogs before treatment; assay type: functional, Canis lupus familiaris, Heart left ventricle
Canis familiaris [17] = species: Canis familiaris; assay: Tissue vascular resistance of pancreas was measured in Beagle dogs after giving the dose of MNX plus the drug; assay type: functional, Canis lupus familiaris
Canis familiaris [18] = species: Canis familiaris; assay: Tissue vascular resistance of pancreas was measured in Beagle dogs before treatment; assay type: functional, Canis lupus familiaris
Rattus norvegicus [19] = assay: Ratio of Total electrolytic excretion of sodium and potassium in urine of rats after intravenous administration of 30.3 uM/Kg of drug; assay type: ADME, organism-based; details: in vivo
Canis familiaris [20] = assay: Total electrolytic excretion of chlorine in urine of dogs after intravenous administration of 30.3 uM/Kg of drug; assay type: ADME, organism-based, Canis lupus familiaris; details: dog, in vivo
Rattus norvegicus [21] = assay: Tested for the diuretic activity by measuring the urinary volume after peroral administering 341 uM/Kg of drug in rats; assay type: ADME, organism-based, Urine; details: in vivo, po

Excretion K+ (Canis familiaris [1]): 1.6 m equiv
Excretion K+ (Canis familiaris [2]): 1.7 m equiv
Excretion Na+ (Canis familiaris [3]): 11.5 m equiv
Excretion Na+ (Canis familiaris [4]): 14 m equiv
Excretion Na+ (Rattus norvegicus [5]): 1.56 m equiv
Excretion K+ (Rattus norvegicus [6]): 2 m equiv
Excretion Na+ (Canis familiaris [7]): 18.6 m equiv
V (Canis familiaris [8]): 77 mL
V (Canis familiaris [9]): 87 mL
Ratio (Rattus norvegicus [19]): 8.6
Excretion Cl- (Canis familiaris [20]): 12.5 m equiv
V (Rattus norvegicus [21]): 10.2 mL
Structure (SMILES): C1CCC(N=C(NC2CCCCC2)N2CCOCC2)CC1
HR (Canis familiaris [10]): 138 beats min-1
SI (Canis familiaris [11]): 1.9 ml beat-1 kg-1
SI (Canis familiaris [12]): 1.1 ml beat-1 kg-1
SI (Canis familiaris [13]): 2.2 ml beat-1 kg-1
TPR (Canis familiaris [14]): 0.91 mmHg·min·kg/mL
TVR (Canis familiaris [15]): 10 mmHg·min·g/mL
TVR (Canis familiaris [16]): 112 mmHg·min·g/mL
TVR (Canis familiaris [17]): 219 mmHg·min·g/mL
TVR (Canis familiaris [18]): 118 mmHg·min·g/mL
